# Test results published in patent US7465725B2, “Pyrimidine compounds” (Synta Pharmaceuticals Corp., priority 2001, dated 2008).
# Key:
# [1] = tested on: CD4+ CD45Rbhigh T cell-reconstituted colitis; assay: CD4+ CD45Rbhigh T cell-reconstituted SCID colitis model mice; format: in vivo, C.B-17 SCID mice
# Method: Treatment of Crohn's disease in CD4^+ CD45Rb^high T cell-reconstituted SCID colitis model mice: Spleen cells were prepared from normal female BALB/c mice. For cell purification, the following anti-mouse antibodies were used to label non-CD4^+ T cells: B220 (RA3-6B2), CD11b (M1/70), and CD8α (53-6.72). All antibodies were obtained from BioSource (Camarillo, Calif.). M450 anti-rat IgG-coated magnetic beads (Dynal, Oslo, Norway) were used to bind the antibodies and negative selection was accomplished using an MPC-1 magnetic concentrator. The enriched CD4^+ cells were then labeled for cell sorting with FITC-conjugated CD45RB (16A, Pharmingen, San Diego, Calif.) and PE-conjugated CD4 (CT-CD4, Caltag, Burlingame, Calif.). CD4^+ CD45Rb^high cells were operationally defined as the upper 40% of CD45Rb-staining CD4^+ cells and sorted under sterile conditions by flow cytometry. Harvested cells were resuspended at 4×10^6/mL in PBS and injected 100 μL intraperitoneally into female C.B-17 SCID mice. Pyrimidine compounds of this invention (e.g., Compound 12) and/or vehicle was orally administered once a day, 5 days per week, starting the day following the transfer. The transplanted SCID mice were weighed weekly and their clinical condition was monitored. Colon tissue samples were fixed in 10% buffered formalin and embedded in paraffin. Sections (4 μm) collected from ascending, transverse, and descending colon were cut and stained with hematoxylin and eosin. The severity of colitis was determined based on histological examination of the distal colon sections, whereby the extent of colonic inflammation was graded on a scale of 0-3 in each of four criteria: crypt elongation, cell infiltration, depletion of goblet cells, and the number of crypt abscesses. LP lymphocytes were isolated from freshly obtained colonic specimens. After removal of […] patches, the colon was washed in Ca/Mg-free HBSS, cut into 0.5 cm pieces and incubated twice in HBSS containing EDTA (0.75 mM), DTT (1 mM), and antibiotics (amphotericin 2.5 μg/mL, gentamicin 50 μg/mL from Sigma) at 37° C. for 15 min. Next, the tissue was-digested further in RPMI containing 0.5 mg/mL collagenase D, 0.01 mg/mL DNase I (Boehringer Manheim), and antibiotics at 37° C. LP cells were then layered on a 40-100% Percoll gradient (Pharmacia, Uppsala, Sweden), and lymphocyte-enriched populations were isolated from the cells at the 40-100% interface. To measure cytokine production, 48-well plates were coated with 10 μg/mL murine anti-CD3ε antibody (145-2C11) in carbonate buffer (PH 9.6) overnight at 4° C. […] Murine IFNγ was measured using an ELISA kit from Endogen (Cambridge, Mass.), according to the manufacturer's instructions.
# adjuvant arthritis = assay: Treatment of adjuvant arthritis in rats; format: in vivo, female Lewis rats; details: oral, once a day for 12 days, dose-dependent
# [2] = tested on: DNBS-induced distal colitis; assay: Dinitrobenzene sulfonic acid-induced inflammatory bowel syndrome model rats; format: in vivo, Wistar derived rats; details: oral, 24 and 2 h before DNBS, then daily for 5 days; relative to vehicle+DNBS net increase
# Method: Treatment of Crohn's disease in dinitrobenzene suifonic acid-induced inflammatory bowel syndrome model rats: Wistar derived male or female rats weighing 200±20 g and fasted for 24 hours were used. Distal colitis was induced by intra-colonic instillation of 2,4-dinitrobenzene sulfonic acid (DNBS, 25 mg in 0.5 mL ethanol 30%) after which air (2 mL) was gently injected through the cannula to ensure that the solution remained in the colon. A test compound and/or vehicle was administered orally 24 and 2 hours before DNBS instillation and then daily for 5 days. One control group was similarly treated with vehicle alone while the other is treated with vehicle plus DNBS. The animals were sacrificed 24 hours after the final dose of test compound administration and each colon was removed and weighed. Colon-to-body weight ratio was then calculated for each animal according to the formula: Colon (g)/BW×100. The “Net” increase in ratio of Vehicle-control+DNBS group relative to Vehicle-control group was used as a base for comparison with test substance treated groups and expressed as “% Deduction.” Pyriridine compounds of this invention (e.g., Compound 12) reproducibly had about 30% deduction. A 30% or more reduction in colon-to-body weight ratio, relative to the vehicle treated eontrol group, was considered significant.
smiles,measurement,setting,value
"Cc1cccc(C=NNc2cc(N3CCOCC3)nc(OCCc3ccccn3)n2)c1 [Compound 12, N-(3-methyl-benzylidene)-N′-[6-morpholin-4-yl-2-(2-pyridin-2-yl-ethoxy)-pyrimidin-4-yl]-hydrazine]",IFNγ production by LP cells,"[1]; ex vivo LP cells from treated mice, anti-CD3 and anti-CD28 antibody, 48 h, ELISA",greatly diminished the production
same,"colonic inflammation (histological analysis), suppressive effect","[1]; oral, dose of 10 mg/kg",substantial reduction
same,colonic inflammation (histological analysis),"[1]; oral, once a day, 5 days per week, versus vehicle control",reduced colonic inflammation
same,colon-to-body weight ratio,"[1]; oral, consistent with histological score",attenuation
same,development of polyarthritis,adjuvant arthritis,delayed the development of polyarthritis
same,arthritic score,adjuvant arthritis; repeated four times,reduced the arthritic score
same,% Deduction (colon-to-body weight ratio),[2],about 30%
